The values that follow are results of earlier work, collected in article PMC3653137 (Molecular pharmaceutics, 2013).

Residues, ends and D or L forms follow the SMILES beside them.

One data set concerns SK-OV-3 cells. To be noted: [WR]4 alone at similar concentrations.
A further data set has as its system CCRF-CEM cells. Particulars: [WR]4 alone at similar concentrations.
The subject of a further data set is HCT-116 cells. To be noted: [WR]4 alone at similar concentrations.
The subject of another data set is BT-20 cells. To be noted: BT-20 human breast carcinoma cells.

For the molecule `N=C(N)NCCC[C@@H]1NC(=O)[C@H](Cc2c[nH]c3ccccc23)NC(=O)[C@H](CCCNC(=N)N)NC(=O)[C@H](Cc2c[nH]c3ccccc23)NC(=O)[C@H](CCCNC(=N)N)NC(=O)[C@H](Cc2c[nH]c3ccccc23)NC(=O)[C@H](CCCNC(=N)N)NC(=O)[C@H](Cc2c[nH]c3ccccc23)NC1=O` [[WR]4] (cyclo(RWRWRWRW)), the “cytotoxicity in SK-OV-3 cells” value with SK-OV-3 cells is given as “not cytotoxic”. For the same molecule, the “cytotoxicity in CCRF-CEM cells” value with CCRF-CEM cells is given as “not cytotoxic”. Also, in the data set with HCT-116 cells, the “cytotoxicity in HCT-116 cells” value is listed as “not cytotoxic”.

For the molecule Lys-(CH2)11-Arg-(CH2)11-Arg [LPA4], the “fold enhancement of cellular delivery of F′-GpYEEI by the carrier peptide” value in the data set with BT-20 cells is recorded as 10 fold.
